# Where two headings read alike, the source gives them in different places.
# Assays:
# CDK4/cyclin D1 = CDK4/cyclin D1 (Homo sapiens (Human), UniProt P11802); settings: read-out: Kinase inhibition CDK4/cyclin D1 IC50
# Experimental: (§3) Recombinant cyclin D1 was expressed in E. coli. […] Reactions were stopped on ice, followed by filtration through p81 filterplates or GF/C filterplates (for CDK4) (Whatman Polyfiltronics, Kent, UK), except for CDK7 where, after stopping reaction on ice, 10 μL of 10 mg/mL avidin was added to each well and further incubated for 10 min followed by filtration as per CDK2 assay. After washing 3 times with 75 mM aq orthophosphoric acid, plates were dried, scintillant added and incorporated radioactivity measured in a scintillation counter (TopCount, Packard Instruments, Pangbourne, Berks, UK). Compounds for kinase assay were made up as 10 mM stocks in DMSO and diluted into 10% DMSO in assay buffer.
# [1] = test system: Human tumour cell lines: A549, HT29, Saos-2; assay: 72-h MTT cytotoxicity assay, tumour cell lines A549, HT29, Saos-2; type: cell-based; settings: for IC50: 72 h, read-out: In vitro anti-proliferative activity (72-h MTT IC50), Human tumour cell lines: A549, HT29, Saos-2; for C: IC50 cytotox. roscovitine/IC50 cytotox. compound: ratio to roscovitine
# Experimental: (§1) In short: cells were seeded into 96-well plates according to doubling time and incubated overnight at 37° C. Test compounds were made up in DMSO and a ⅓ dilution series prepared in 100 μL cell media, added to cells (in triplicates) and incubated for 72 ho at 37° C. MTT was made up as a stock of 5 mg/mL in cell media and filter-sterilised. Media was removed from cells followed by a wash with 200 μL PBS. MTT solution was then added at 20 μL per well and incubated in the dark at 37° C. for 4 h. MTT solution was removed and cells again washed with 200 μL PBS. MTT dye was solubilised with 200 μL per well of DMSO with agitation.
# CDK2/cyclin E = CDK2/cyclin E (Homo sapiens (Human), UniProt P24941); assay: Kinase assay CDK2/cyclin E; type: biochemical; settings: for IC50: read-out: Kinase inhibition CDK2/cyclin E IC50; for A × B: comparative in vitro efficacy; for B: IC50 CDK2 roscovitine/IC50 CDK2 compound: ratio to roscovitine
# Experimental: as §3
# CDK1/cyclin B = CDK1/cyclin B (Homo sapiens (Human), UniProt P06493); assay: Kinase assay CDK1/cyclin B; type: biochemical; settings: read-out: Kinase inhibition CDK1/cyclin B IC50
# Sequence of CDK1/cyclin B (P06493 whole entry): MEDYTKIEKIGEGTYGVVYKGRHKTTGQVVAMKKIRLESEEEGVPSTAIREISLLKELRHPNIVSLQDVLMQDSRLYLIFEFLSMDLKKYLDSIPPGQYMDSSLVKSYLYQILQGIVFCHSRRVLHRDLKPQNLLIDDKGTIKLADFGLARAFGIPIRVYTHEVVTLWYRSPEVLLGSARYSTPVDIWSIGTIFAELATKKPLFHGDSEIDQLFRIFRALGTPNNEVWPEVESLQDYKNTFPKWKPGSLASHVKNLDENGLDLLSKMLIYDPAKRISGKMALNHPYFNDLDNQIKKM
# Sequence of CDK1/cyclin B (P14635 whole entry partner): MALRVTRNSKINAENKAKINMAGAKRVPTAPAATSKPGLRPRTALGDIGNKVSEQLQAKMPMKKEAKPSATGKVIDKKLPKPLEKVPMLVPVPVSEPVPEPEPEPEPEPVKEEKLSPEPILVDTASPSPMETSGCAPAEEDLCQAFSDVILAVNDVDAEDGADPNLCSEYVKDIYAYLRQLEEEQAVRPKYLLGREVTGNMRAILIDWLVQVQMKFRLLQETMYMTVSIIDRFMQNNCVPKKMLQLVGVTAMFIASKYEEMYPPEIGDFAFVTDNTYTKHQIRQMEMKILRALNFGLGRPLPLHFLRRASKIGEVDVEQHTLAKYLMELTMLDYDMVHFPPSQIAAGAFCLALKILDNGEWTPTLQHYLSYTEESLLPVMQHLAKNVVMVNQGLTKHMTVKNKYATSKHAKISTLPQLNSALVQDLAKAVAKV
# Experimental: as §3
# ERK-2 = ERK-2 (Homo sapiens (Human), UniProt P28482); assay: Kinase assay ERK-2; settings: read-out: Kinase inhibition ERK2 IC50
# Sequence of ERK-2 (P28482 whole entry, species assumed): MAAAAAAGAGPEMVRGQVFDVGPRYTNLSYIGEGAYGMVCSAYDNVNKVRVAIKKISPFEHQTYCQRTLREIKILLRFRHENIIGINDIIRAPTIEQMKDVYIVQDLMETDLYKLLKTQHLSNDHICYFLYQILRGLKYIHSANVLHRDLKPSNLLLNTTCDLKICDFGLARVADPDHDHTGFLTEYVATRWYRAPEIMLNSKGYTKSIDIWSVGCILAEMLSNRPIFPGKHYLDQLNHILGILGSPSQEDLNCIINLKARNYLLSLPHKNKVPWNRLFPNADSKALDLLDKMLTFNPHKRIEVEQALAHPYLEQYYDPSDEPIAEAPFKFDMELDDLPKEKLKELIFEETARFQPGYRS
# Experimental: as §3
# [2] = molecular target: cyclic AMP-dependent kinase (PKA) catalytic subunit (Homo sapiens (Human), UniProt P17612); assay: Kinase assay PKA; settings: read-out: Kinase inhibition PKA IC50
# Experimental: as §3
# CDK7/cyclin H = CDK7/cyclin H (Homo sapiens (Human), UniProt P50613); assay: Kinase assay CDK7/cyclin H; type: biochemical; settings: read-out: Kinase inhibition CDK7/cyclin H IC50
# Sequence of CDK7/cyclin H (P50613 whole entry): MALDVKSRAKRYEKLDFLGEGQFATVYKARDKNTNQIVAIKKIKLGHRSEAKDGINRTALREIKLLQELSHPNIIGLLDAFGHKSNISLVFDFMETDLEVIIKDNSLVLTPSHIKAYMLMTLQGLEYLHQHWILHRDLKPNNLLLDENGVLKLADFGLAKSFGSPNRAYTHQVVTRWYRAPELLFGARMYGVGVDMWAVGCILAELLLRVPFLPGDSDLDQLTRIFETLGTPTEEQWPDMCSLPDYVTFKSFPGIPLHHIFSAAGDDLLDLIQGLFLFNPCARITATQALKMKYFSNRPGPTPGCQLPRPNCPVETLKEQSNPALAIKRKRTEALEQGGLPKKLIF
# Sequence of CDK7/cyclin H (P51946 whole entry partner): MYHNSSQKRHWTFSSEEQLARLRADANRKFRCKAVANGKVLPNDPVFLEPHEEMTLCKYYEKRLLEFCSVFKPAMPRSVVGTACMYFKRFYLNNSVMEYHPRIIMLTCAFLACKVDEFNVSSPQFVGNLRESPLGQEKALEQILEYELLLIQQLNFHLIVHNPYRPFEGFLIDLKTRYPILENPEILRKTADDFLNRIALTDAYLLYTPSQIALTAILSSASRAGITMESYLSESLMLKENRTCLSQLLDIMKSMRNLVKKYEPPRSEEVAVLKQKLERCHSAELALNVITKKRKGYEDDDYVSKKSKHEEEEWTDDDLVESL
# Experimental: Reactions were stopped on ice, followed by filtration through p81 filterplates or GF/C filterplates (for CDK4) (Whatman Polyfiltronics, Kent, UK), except for CDK7 where, after stopping reaction on ice, 10 μL of 10 mg/mL avidin was added to each well and further incubated for 10 min followed by filtration as per CDK2 assay. After washing 3 times with 75 mM aq orthophosphoric acid, plates were dried, scintillant added and incorporated radioactivity measured in a scintillation counter (TopCount, Packard Instruments, Pangbourne, Berks, UK). Compounds for kinase assay were made up as 10 mM stocks in DMSO and diluted into 10% DMSO in assay buffer.
# [3] = 10 μM
# Experimental: (§4) Calibration curves were prepared at 0, 1, and 10 μM in microsomes pre-incubated for 30 min and these were also treated with methanol containing olomoucine. All samples were then centrifuged and the supernatants analysed by liquid chromatography-mass spectrometry.
# (§5) The chromatography column was a Supelco LC-ABZ, 50×4.6 mm, 5 μm zwitterionic column (Supelco Inc., Supelco Park, Bellefonte, Pa., USA). Gradient eluants consisted of methanol (A) and 0.1% formic acid in water (B). […] The flow rate was 1 mL/min throughout. […] Eluant from the detector passed, without splitting, into a Thernoquest LCQ ion trap mass spectrometer fitted with an electrospray source operated in positive mode. Mass spectrometer conditions were sheath gas 80, auxiliary gas 20 (both arbitrary units), capillary voltage 4 to 4.5 kV and heated capillary temperature 250 to 280° C. The mass range was 50-750. Scan time was controlled by the ion trap which was set to a maximum ion injection time of 200 ms or the time required to inject 2×10^8 ions; for each scan the system automatically used whichever time was reached first.
# (§6) The peak area ration (test compound/internal standard) of the test incubation was then compared with the peak area ratios obtained fro the calibration curve of the test compound. From these values the concentration of test compound remaining after 30 min microsomal protein incubation was determined.
# MCF7 = assay: 72-h MTT assay MCF7; type: cell-based; settings: Homo sapiens, read-out: 72-h MTT IC50, MCF7, mammary adenocarcinoma
# Experimental: as §1
# (§2) Representative compounds of this invention were examined for their anti-proliferative effect against human tumour cell lines and immortalized non-transformed human cell lines (“normal” cell lines).
# HT-29 = assay: 72-h MTT assay HT-29; type: cell-based; settings: Homo sapiens, read-out: 72-h MTT IC50, HT-29, colorectal adenocarcinoma
# Experimental: as §1, §2
# Hs27 = assay: 72-h MTT assay Hs27; type: cell-based; settings: Homo sapiens, read-out: 72-h MTT IC50, Hs27, normal foreskin fibroblast
# Experimental: as §1, §2
# Saos-2 = assay: 72-h MTT assay Saos-2; type: cell-based; settings: Homo sapiens, read-out: 72-h MTT IC50, Saos-2, osteosarcoma
# Experimental: as §1, §2
# WI38 = assay: 72-h MTT assay WI38; type: cell-based; settings: Homo sapiens, WI-38, 72 h, read-out: 72-h MTT IC50; WI38, normal foetal lung fibroblast
# Experimental: as §1, §2
# normal cell lines = assay: 72-h MTT assay, mean of normal cell lines; type: cell-based; settings: Homo sapiens, read-out: 72-h MTT IC50
# Experimental: as §1, §2
# HeLa = assay: 72-h MTT assay HeLa; type: cell-based; settings: Homo sapiens, read-out: 72-h MTT IC50, cervical adenocarcinoma
# Experimental: as §1, §2
# IMR90 = assay: 72-h MTT assay IMR90; type: cell-based; settings: Homo sapiens, IMR-90, 72 h, read-out: 72-h MTT IC50; IMR90, normal embryo lung fibroblast
# Experimental: as §1, §2
# A549 = assay: 72-h MTT assay A549; type: cell-based; settings: Homo sapiens, read-out: 72-h MTT IC50, A549, lung carcinoma
# Experimental: as §1, §2
# cancer cell lines = assay: 72-h MTT assay, mean of cancer cell lines; type: cell-based; settings: Homo sapiens, read-out: 72-h MTT IC50
# Experimental: as §1, §2
# K-562 = assay: 72-h MTT assay K-562; type: cell-based; settings: Homo sapiens, K562, 72 h, read-out: 72-h MTT IC50
# Experimental: as §1, §2
# HL-60 = assay: 72-h MTT assay HL-60; type: cell-based; settings: Homo sapiens, read-out: 72-h MTT IC50, HL-60, acute promyelocytic leukaemia
# Experimental: as §1, §2
# CCRF-CEM = assay: 72-h MTT assay CCRF-CEM; type: cell-based; settings: Homo sapiens, read-out: 72-h MTT IC50, acute lymphoblastic leukaemia
# Experimental: as §1, §2
# [4] = Comparative in vitro metabolism assay (microsomal incubation)
# Experimental: as §4, §5, §6
# Sequence of CDK4/cyclin D1 (P11802 whole entry): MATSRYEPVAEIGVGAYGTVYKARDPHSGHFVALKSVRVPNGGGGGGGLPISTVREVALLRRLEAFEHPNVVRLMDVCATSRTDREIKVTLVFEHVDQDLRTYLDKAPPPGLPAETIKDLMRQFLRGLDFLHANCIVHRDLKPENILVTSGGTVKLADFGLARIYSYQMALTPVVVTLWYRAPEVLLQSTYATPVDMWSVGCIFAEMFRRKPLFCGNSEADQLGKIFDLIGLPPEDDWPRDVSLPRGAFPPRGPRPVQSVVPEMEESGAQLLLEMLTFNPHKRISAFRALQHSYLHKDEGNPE
# Sequence of CDK4/cyclin D1 (P24385 whole entry partner): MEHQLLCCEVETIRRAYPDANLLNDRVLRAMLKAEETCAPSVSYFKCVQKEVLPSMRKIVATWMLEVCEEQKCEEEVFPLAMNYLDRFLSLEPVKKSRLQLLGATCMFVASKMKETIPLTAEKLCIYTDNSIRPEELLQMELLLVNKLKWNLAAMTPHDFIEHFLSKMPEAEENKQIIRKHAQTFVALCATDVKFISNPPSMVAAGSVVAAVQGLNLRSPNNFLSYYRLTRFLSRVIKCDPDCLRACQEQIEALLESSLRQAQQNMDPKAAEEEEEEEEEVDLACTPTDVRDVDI
SMILES,IC50 (CDK4/cyclin D1),IC50 (CDK2/cyclin E),IC50 (CDK1/cyclin B),IC50 (ERK-2),IC50 [2],IC50 (CDK7/cyclin H),% Drug after 30 min. microsomal incubation [3],A × B (CDK2/cyclin E),B: IC50 CDK2 roscovitine/IC50 CDK2 compound (CDK2/cyclin E),IC50 [1],C: IC50 cytotox. roscovitine/IC50 cytotox. compound [1],other results
"CC[C@@H](Nc1nc(NCc2cccnc2)c2ncn(C(C)C)c2n1)C(O)C(C)(C)C (mixture of isomers) [(3RS,4R)-4-{9-Isopropyl-6-[(pyridin-3-ylmethyl)-amino]-9H-purin-2-ylamino}-2,2-dimethyl-hexan-3-ol]",24 µM,1 µM,23 µM,51 µM,> 200 µM,1.6 µM,–,–,–,19 µM,–,–
"CC[C@H](Nc1nc(NCc2cccnc2)c2ncn(C(C)C)c2n1)C(O)C(C)(C)C (mixture of isomers) [(3RS,4S)-4-{9-Isopropyl-6-[(pyridin-3-ylmethyl)-amino]-9H-purin-2-ylamino}-2,2-dimethyl-hexan-3-ol]",13 µM,0.39 µM,21 µM,23 µM,> 200 µM,3.5 µM,50%,0.4,0.3,15 µM,0.8,–
"CC[C@H](Nc1nc(NCc2cccnc2)c2ncn(C(C)C)c2n1)C(O)C(C)C (mixture of isomers) [(3RS,4S)-4-{9-Isopropyl-6-[(pyridin-3-ylmethyl)-amino]-9H-purin-2-ylamino}-2-methyl-hexan-3-ol]",31 µM,1.1 µM,22 µM,67 µM,> 200 µM,3.5 µM,–,–,–,19 µM,–,–
"CC[C@H](CO)Nc1nc(NCc2ccccc2)c2ncn(C(C)C)c2n1 [Roscovitine, roscovitine]",–,–,–,–,–,–,–,–,–,–,–,"% Drug after 30 min. microsomal incubation ([4]; 10 μM compound, 30 min, microsomal protein 0.2 mg, NADPH): 33%; A: % Compound remaining/% roscovitine remaining ([4]; ratio to roscovitine): 1.0"

# The remaining compounds from weak to strong by IC50 (CDK1/cyclin B), led by results:
IC50 (CDK4/cyclin D1),IC50 (CDK2/cyclin E),IC50 (CDK1/cyclin B),IC50 (ERK-2),IC50 [2],IC50 (CDK7/cyclin H),% Drug after 30 min. microsomal incubation [3],A × B (CDK2/cyclin E),B: IC50 CDK2 roscovitine/IC50 CDK2 compound (CDK2/cyclin E),SMILES,IC50 [1],C: IC50 cytotox. roscovitine/IC50 cytotox. compound [1],other results
21 µM,0.69 µM,20 µM,111 µM,200 µM,2.2 µM,–,–,–,"CC[C@@H](Nc1nc(NCc2cccnc2)c2ncn(C(C)C)c2n1)C(O)C(C)C (mixture of isomers) [(3RS,4R)-4-{9-Isopropyl-6-[(pyridin-3-ylmethyl)-amino]-9H-purin-2-ylamino}-2-methyl-hexan-3-ol]",28 µM,–,–
11 µM,0.11 µM,13 µM,17 µM,> 200 µM,1.5 µM,73%,2.1,1.0,"CCC(O)[C@H](CC)Nc1nc(NCc2cccnc2)c2ncn(C(C)C)c2n1 (mixture of isomers) [(3RS,4S)-4-{9-Isopropyl-6-[(pyridin-3-ylmethyl)-amino]-9H-purin-2-ylamino}-hexan-3-ol]",5.5 µM,2.1,–
25 µM,0.22 µM,12 µM,37 µM,> 200 µM,1.1 µM,70%,1.0,0.5,"CCC(O)[C@@H](CC)Nc1nc(NCc2cccnc2)c2ncn(C(C)C)c2n1 (mixture of isomers) [(3RS,4R)-4-{9-Isopropyl-6-[(pyridin-3-ylmethyl)-amino]-9H-purin-2-ylamino}-hexan-3-ol]",10 µM,1.1,–
7.5 µM,0.2 µM,6.2 µM,91 µM,> 200 µM,3.1 µM,84%,1.3,0.5,CC[C@@H](Nc1nc(NCc2cccnc2)c2ncn(C(C)C)c2n1)C(C)(C)O [(3R)-3-{9-Isopropyl-6-[(pyridin-3-ylmethyl)-amino]-9H-purin-2-ylamino}-2-methyl-pentan-2-ol],5.6 µM,2.1,–
–,–,4.9 µM,23 µM,> 200 µM,–,90%,3.1,–,CC[C@@H](Nc1nc(NCc2cccnc2)c2ncn(C(C)C)c2n1)[C@H](C)O [(2S3R)-3-{9-Isopropyl-6-[(pyridin-3-ylmethyl)-amino]-9H-purin-2-ylamino}-pentan-2-ol],1.5 µM,–,IC50 (MCF7): 1.6 ± 0.2 µM; IC50 (HT-29): 2.3 ± 0.6 µM; IC50 (Hs27): 10.2 ± 0.6 µM; IC50 (Saos-2): 2.8 ± 0.1 µM; IC50 (WI38): 11.2 ± 1.2 µM; IC50 (normal cell lines): > 10 µM; IC50 (HeLa): 2.9 ± 0.2 µM; IC50 (IMR90): > 20 µM; IC50 (A549): 2.1 ± 0.4 µM; IC50 (cancer cell lines): 2.3 ± 0.5 µM
12 µM,0.07 µM,4.4 µM,35 µM,> 200 µM,2.5 µM,78%,3.2,1.4,CC[C@H](Nc1nc(NCc2cccnc2)c2ncn(C(C)C)c2n1)C(C)(C)O [(3S)-3-{9-Isopropyl-6-[(pyridin-3-ylmethyl)-amino]-9H-purin-2-ylamino}-2-methyl-pentan-2-ol],4 µM,2.9,IC50 (K-562): 8.4 ± 1.2 µM; IC50 (MCF7): 2.3 ± 0.3 µM; IC50 (HT-29): 2.3 ± 0.9 µM; IC50 (Hs27): 11.3 ± 0.7 µM; IC50 (Saos-2): 3.9 ± 0.8 µM; IC50 (WI38): > 20 µM; IC50 (normal cell lines): > 10 µM; IC50 (HeLa): 4.7 ± 0.5 µM; IC50 (IMR90): > 20 µM; IC50 (A549): 3.6 ± 0.2 µM; IC50 (HL-60): 3 ± 0.2 µM; IC50 (cancer cell lines): 4 ± 2 µM; IC50 (CCRF-CEM): 3.7 ± 0.3 µM
–,–,2.2 µM,20 µM,> 200 µM,–,67%,7.5,–,CC[C@H](Nc1nc(NCc2cccnc2)c2ncn(C(C)C)c2n1)[C@@H](C)O [(2R3S)-3-{9-Isopropyl-6-[(pyridin-3-ylmethyl)-amino]-9H-purin-2-ylamino}-pentan-2-ol],0.8 µM,–,IC50 (MCF7): 0.7 ± 0.1 µM; IC50 (HT-29): 1.1 ± 0.2 µM; IC50 (Hs27): 5.9 ± 0.3 µM; IC50 (Saos-2): 1.2 ± 0.2 µM; IC50 (WI38): 6.1 ± 0.3 µM; IC50 (normal cell lines): > 10 µM; IC50 (HeLa): 1.4 ± 0.2 µM; IC50 (IMR90): > 20 µM; IC50 (A549): 0.9 ± 0.1 µM; IC50 (cancer cell lines): 1.1 ± 0.3 µM
